Results published in publication PMC9088311, “Cyclic Thiosulfonates for Thiol-Mediated Uptake: Cascade Exchangers, Transporters, Inhibitors” (JACS Au, 2022).
In brackets after ≈: the same amount, converted by molar mass. Several values for one entry are separate records, joined by “and”; a condition that tells them apart may be missing. Equal values may be shown once.

How the values were obtained:
in vitro = conditions: human
HK cells, transporter 31 = assay: HCHT imaging: inhibition of cytosolic delivery of ETP transporter 31; assay type: cell-based, Human; conditions: co-incubation (C), inhibitor 1 h; for IC50 / IC15: Homo sapiens, 1 h; for IC50: read-out: IC50 (concentration needed to reach 50% inhibition), transporter 31 10 μM; for IC15: read-out: MIC (concentration needed to reach 15% inhibition), transporter 31 10 μM; for MIC (concentration needed to reach 15% inhibition): transporter 31 10 μM
Description: (§1) Uptake inhibition was measured by the automated HCHT imaging used already to elaborate on cytosolic delivery. For inhibitor screening, HK cells in multiwell plates were incubated with increasing concentrations of inhibitors, followed by fluorescent transporters 28, 31, and 32 at a constant concentration. […] If inhibitors are removed before the addition of transporters 28, 31, and 32, the method is referred to as “pre-incubation”. This is of interest to minimize exchange between the transporter and the inhibitor but is often problematic because dynamic covalent exchange between the inhibitor and cellular target can also be reversed and thus lost. The complementary “co-incubation” operates without inhibitor removal before the addition of transporters 28, 31, and 32.
(§2) 536/40 nm emission filter, and red with 531/40 nm excitation filter and 593/40 nm emission […]
(§3) 4.3. HCHT Inhibitor Screening
(§4) Pre-Incubation Method. As in ref. S1. HeLa Kyoto cells were seeded at 8 ×10^4 cells/mL in FluoroBrite DMEM + 10% FBS on μ-Plate 96-well Black ibiTreat sterile and incubated at 37 °C with 5% CO 2 for 24 h. Then, the medium was removed and cells were washed with PBS ([…]), fresh FluoroBrite DMEM medium (4 × 150 μL/well) was added into the cells using a plate washer (Biotek EL406®), keeping a final volume of 135 μL/well. Different concentrations of the inhibitors were prepared by serial dilution with 10% final concentration DMSO (10× in PBS). The solution of compounds 4 and 33 was prepared final DMSO concentration of 10% in each dilution (10× in PBS). These inhibitor solutions (10× final concentration), transporter 28 (10× in DMEM), transporters 31 and 32 (10× in PBS) a solution of HOE (100 μg/mL) and PI (10 μg/mL) in PBS were prepared freshly in a 96-well V-bottom plate before adding to the cells. The inhibitor solutions from the V-bottom plate were added to the cells (15 μL/well) in a final volume of 150 μL/well using an electronic multichannel pipette and cells were incubated for 1 h at 37 °C with 5% CO 2. After this incubation, cells were washed again with PBS and DMEM using the plate washer (in the way mentioned above), and transporter 28 , 31 or 32 from the V-bottom plate was added (15 μL/well) to the cells in a final volume of 150 μL/well. A final concentration of each transporter 28 , 31 and 32 was 5 μM, 10 μM and 0.5 μM, respectively, except for the control wells, where only PBS was added (15 μL/well). Cells treated with transporter 28 or 31 were incubated for 30 min, and cells treated with 32 were incubated for 2 h at 37 °C with 5% CO 2. After that, the cells were washed with PBS and DMEM using the plate washer, and the solution of Hoechst 33342 and PI from the V-bottom plate was added (15 μL/well) to the cells in a final volume of 150 μL/well. After 15 min of incubation at 37 °C with 5% CO 2, the cells were washed and kept in clean FluoroBrite
(§5) DMEM. For live cell imaging, samples were kept at 37 °C with 5% CO 2 during the microscope imaging. The distribution of fluorescence stained cells was analyzed without fixing using an […]

[1] = Dynamic covalent ring opening with thiol 10, 1H NMR kinetics; assay type: physicochemical
Description: The dynamic covalent opening of CTO 3 with thiols yields product 9 with a disulfide and a sulfinate (Figure 3B). Consistent with short chalcogen bonds found in silico, the opening of CTO 3 was instantaneous on an NMR timescale with most thiols. To decelerate ring opening, bulky thiols were considered in combination with lowered pH to deactivate the nucleophile. With N-Ac-D-penicillamine 10, the opening of 5 mM CTO 3 in phosphate buffer/DMSO-d6 9:1 was still immediate at pD 6.7 but became detectable in ^1H NMR spectroscopy kinetics under more acidic conditions. The ring-opening rate constants k^O were estimated by fitting the initial velocities to second-order kinetics. Only lower bound rates were approximated from the earliest determined substrate conversions when reactions were still too fast despite the unfavorable conditions. At pD 5.4, dynamic covalent ring opening of CTO 3 with equimolar tertiary thiol 10 occurred with k^O > 0.49 M^–1 s^–1 and equilibrated at K = 6.0 × 10^3 M^–1 (Table 1, entry 1, Figures S4 and S5). At pD 2.7, further deceleration to k^O = 0.10 M^–1 s^–1 shifted the equilibrium to K = 500 M^–1 (Table 1, entry 2, Figures S6 and S7). […] At equilibrium, the concentration of thiol 10 further decreased slowly due to oxidation into the homodimer (Figure 3C, diamonds).
Equilibrium constants for reactions with two reactants A and B and a product C are […]
3.1.1. Dynamic Covalent Ring Opening with Thiols
General procedure A (at 5 mM): To a solution of deuterated sodium phosphate (200 mM in D 2O, pD 2.7 or 5.4, 180 mM final concentration), a stock solution of substrate (0.10 M in DMSO-d6, 5.0 mM final concentration) was added and stirred. Then a stock solution of 10 (0.10 M in DMSO- d6, 5.0 mM final concentration) was added and vigorously stirred at room temperature. The solution was transferred immediately to an NMR tube and NMR data were recorded repeatedly. The concentration of the substrate or thiol at each time plot was calculated by comparing the integrals of the peaks indicated with arrows in the figures, and plotted. The data points were fitted to obtain k1 with the Equation (S6) or (S7) using Graphpad Prism.
General procedure B (at 2 mM): To a solution of deuterated sodium phosphate (200 mM in D 2O, pD 2.7 or 5.4, 180 mM final concentration), DMSO- d6 (10% DMSO- d6 in the reaction mixture) and a stock solution of substrate (0.10 M in DMSO- d6, 2.0 mM final concentration) were added and stirred. Then a stock solution of 10 (0.10 M in DMSO- d6, 2.0 mM final concentration) was added and vigorously stirred at room temperature. The solution was transferred immediately to an NMR tube and NMR data were recorded repeatedly. The concentration of the substrate or thiol at each time plot was calculated by comparing the integrals of the peaks indicated with arrows in the figures, and plotted. The data points were fitted to obtain k1 with the Equation (S6) or (S7) using Graphpad Prism.
General procedure C (for thiosulfinates): To a solution of deuterated sodium phosphate (200 mM in D 2O, pD 5.4, 170 mM final concentration), a stock solution of substrate (0.10 M in DMSO- d6, 5.0 mM final concentration) was added and stirred. Then a stock solution of 10 (0.10 M in DMSO- d6, 10 mM final concentration) was added and vigorously stirred at room […]
data points were fitted to obtain k1 with the Equation (S14) or (S16) using Graphpad Prism. […]
3.1.2. Dependence of Ring Opening on Proticity
A mixture of deuterated phosphoric acid and NaOD (30% in D 2O), which gave pD 2.7 in D2O, was used as buffer in all solvent mixtures. To a solution of deuterated sodium phosphate (20 mM final concentration) in a mixture of D 2O and DMSO- d6 (540 μL, final D 2O content: […]
concentration) was added and stirred. Then a stock solution of 10 (0.10 M in DMSO- d6, 5.0 mM final concentration) was added and vigorously stirred at room temperature. The solution was transferred immediately to an NMR tube and 1H NMR data were recorded repeatedly. […]

HeLa Kyoto cells = assay: Relative viability (HOE/PI) in HCHT screening
Description: One advantage of HCHT imaging of cellular uptake compared to flow cytometry[38],[42],[43] is that it simultaneously gives information on toxicity and intracellular localization. […] Information on the intracellular localization of reporters can be quantified through segmentation of cellular compartments stained with specific markers.[52]
as §1
Relative cell viability ( RV) for each condition in the presence of inhibitors was calculated […]
of the relative cell viability ( RVrel) to the concentration of inhibitors ( cinhibitor ) was plotted and fitted with Equation (S19) to retrieve the concentration causing 50% cell growth inhibition (RV50) value and the Hill coefficient ( n).

HK cells, transporter 28 = assay: HCHT imaging: inhibition of cytosolic delivery of CTO transporter 28; assay type: cell-based, Human; conditions: pre-incubation (P), inhibitor 1 h
Description: as §1, §2, §3, §4, §5

[2] = with transporter 31, co-incubation (C)

Structure (SMILES)	IC50 (HK cells, transporter 31) [µM]	IC15 (HK cells, transporter 31) [µM]	RV50 (concentration needed to lower relative viability by 50%) (HeLa Kyoto cells; [2]) [µM]	viability at 7 h, 50 µM (in vitro) [%]	MIC (concentration needed to reach 15% inhibition) (HK cells, transporter 31) [µM]	other results
CC(C)(C)[Si](C)(C)O[C@@H]1CS(=O)(=O)SC[C@@H]1O [Compound 6]	5 ± 1	< 1	–	–	–	viability at 7 h, 5 µM (in vitro): 105 ± 7%
CSS(C)(=O)=O [Compound 14, reference compound]	–	–	–	–	–	k^O, rate constant of ring opening (or equivalent for acyclic controls) ([1]; equimolar 10, rt, pD 2.7, 90% D2O, Na+ phosphate 180 mM, substrate 2 mM): 0.52 M^–1 s^–1; krel^O, rate constant of ring opening relative to 3 ([1]; pD 2.7, 90% D2O, 2 mM): 5.2
O=S1(=O)C[C@H](O)[C@@H](O)CS1 [Compound 15]	22	1.5	>500	–	–	k^O, rate constant of ring opening ([1]; equimolar 10, rt, pD 2.7, 90% D2O/DMSO-d6, Na+ phosphate 180 mM, substrate 5 mM): >0.56 M^–1 s^–1; krel^O, rate constant of ring opening relative to 3 ([1]; pD 2.7, 90% D2O, 5 mM): >5.6; ring opening faster than 3 (fold) ([1]; with thiol 10, pD 2.7): 5 ×
O=C(O)c1cc(SSc2ccc([N+](=O)[O-])c(C(=O)O)c2)ccc1[N+](=O)[O-] [Compound 16, 5,5’-Dithiobis(2-nitrobenzoic acid), reference compound]	–	–	–	–	–	viability at 7 h, 5 µM (in vitro): 89%; k^O, rate constant of ring opening (or equivalent for acyclic controls) ([1]; equimolar 10, rt, pD 5.4, 90% D2O/DMSO-d6, Na+ phosphate 180 mM, substrate 5 mM): 0.11 M^–1 s^–1; krel^O, rate constant of ring opening relative to 3 ([1]; pD 5.4, 90% D2O, 5 mM): <0.22; ring opening/exchange slower than CTO 3 (fold) ([1]; with thiol 10, pD 5.4): > 5 ×
CCN1C(=O)C2SSC1C(=O)N2CC(=O)NCCNC(=S)Nc1ccc(-c2c3ccc(=O)cc-3oc3cc(O)ccc23)c(C(=O)O)c1 (stereo not shown) [Compound 31, reference compound]	–	–	–	–	–	toxicity of transporters (in words) (HeLa Kyoto cells; conditions of HCHT screening (28 5 μM, 31 10 μM, 32 0.5 μM)): not toxic
CC(=O)O[C@H]1CSS(=O)(=O)C[C@H]1O [Compound 36]	27	2.1	>50	97	2	–
O=S(O)CC(O)C(O)CSSCC(O)C(O)CS(=O)O (stereo not shown) [Compound 37]	60 ± 20	6.8	>50	97	7	–
CC(C)(C)[Si](C)(C)O[C@@H]1CS(=O)(=O)SC[C@@H]1OC(=O)NCC[N+](C)(C)C [Compound 38]	47	23	–	37	–	–
NCCNC(=O)O[C@H]1CSS(=O)(=O)C[C@H]1O [Compound 39]	> 50	14	>50	86	–	–
O=S(O)CC(O)C(O)CSSCCSSCC(O)C(O)CS(=O)O (stereo not shown) [Compound 40]	50	7.8	>50	96	8	–
CCCNC(=O)O[C@H]1CSS(=O)(=O)C[C@H]1O[Si](C)(C)C(C)(C)C [Compound 43]	–	–	–	–	–	IC15 (HK cells, transporter 28; Homo sapiens, 1 h, read-out: MIC (concentration needed to reach 15% inhibition), transporter 28 5 μM): 4.1 µM; IC50 (HK cells, transporter 28; Homo sapiens, read-out: IC50 (concentration needed to reach 50% inhibition), transporter 28 5 μM): > 50 µM; MIC (concentration needed to reach 15% inhibition) (HK cells, transporter 28; transporter 28 5 μM): 4 µM (≈ 1.53 µg/mL); viability at 7 h, 10 µM (in vitro): 87%
C#CCNC(=O)CC[C@H](NC(=O)COCCNC(=O)O[C@H]1CSS(=O)(=O)C[C@H]1O[Si](C)(C)C(C)(C)C)C(=O)NCCOCCNC(=O)O[C@H]1CSS(=O)(=O)C[C@H]1O[Si](C)(C)C(C)(C)C [Compound 44]	–	–	–	–	–	RV50 (concentration needed to lower relative viability by 50%) (HeLa Kyoto cells; with transporter 28, pre-incubation (P)): 4.1 ± 0.3 µM and 4 µM; viability at 7 h, 10 µM (in vitro): 98%
O=c1c2ccccc2[se]n1-c1ccccc1 [Compound 46, Ebselen, reference compound]	49	< 2	>100	40	<2	–
